Like-named read-outs stand apart in the source and are kept apart here.
How the values were obtained:
[1] = test system: yeast 20S proteasome, trypsin-like (T-L) activity; settings: luminogenic enzyme assay; cited from earlier work
[2] = biological target: yeast 20S proteasome, caspase-like (C-L) activity; settings: luminogenic enzyme assay; cited from earlier work
[3] = biological target: T1, yeast 20S proteasome (Saccharomyces cerevisiae, UniProt P25043+P30656+P38624); settings: cited from earlier work
T1 construct: Crystals of the 20S proteasome from S. cerevisiae were grown in hanging drops; endogenous in cells; host or cells: S. cerevisiae (complex purified from yeast by a cited earlier protocol)

[4] = test system: yeast 20S proteasome, chymotrypsin-like (ChT-L) activity; settings: luminogenic enzyme assay; cited from earlier work
[5] = test system: human proteasome; parameters: method as in PMID 16286248; settings: cited from earlier work
[6] = test system: yeast 20S proteasome, chymotrypsin-like (ChT-L) activity; experiment: luminogenic enzyme assay, chymotrypsin-like activity; type: biochemical
Procedure: The proteasome inhibitory activity of the unnatural analog, homoSalA, was measured in a luminogenic enzyme assay in comparison to SalA enabling assessment of all three active sites of yCP.

[7] = biological target: T1, yeast 20S proteasome; experiment: X-ray crystallography of yeast 20S proteasome:ligand complex, mode of action; type: binding; settings: yCP:homoSalA crystal structure, crystals soaked at 5 mM; no tetrahydropyran ring formation
Procedure: Therefore, we elucidated the yCP:homoSalA complex at molecular resolution to investigate its mode of action. Active yCP crystals were soaked with final compound concentrations of 5 mM for 24 h. Subsequently, diffraction data were recorded to 2.9 Å resolution (Table 2) and data processing, as well as structural refinement, were performed according to previous protocols. The crystallographic data were refined to a final Rfree value of 23.3% with root mean square deviation bond and angle values less than 0.007 Å and 1.1°, respectively (PDB ID 6GOP, Table 2). […] While the active site nucleophile Thr1O^γ opens the β-lactone ring, the positively charged Thr1NH3^+-terminus acts as a Brønsted acid generating a C4-hydroxyl group from the hydrolyzed β-lactone. […]
While the electron density map offered no evidence for fluoride elimination, the complex structure determined after 24 h crystal soaking time depicts complete displacement of the leaving group. […]
Crystals of the 20S proteasome from S. cerevisiae were grown in hanging drops at 20 °C as previously described and incubated for […] with homoSalA at 5 mM. […] Crystals were soaked in a cryoprotecting buffer (30% MPD, 20 mM of magnesium acetate, 100 mM MES (pH 6.9)) and frozen in a stream of liquid nitrogen gas at 100 K. X-ray intensities were evaluated using the XDS program package. […]

[8] = test system: chymotrypsin-like activity of the proteasome; parameters: method as in PMID 7732382; settings: cited from earlier work

Row | Structure (SMILES) | IC50 [1] [nM] | IC50 [2] [nM] | mode of action (reversibility of proteasome inhibition) ([3]; chloro-ethyl moiety forms a tetrahydrofuran ring) | ChT-L Activity 20S Proteasome (IC50, nM) [4] | IC50 [4] [nM] | IC50 [5] [nM] | potency towards caspase- and trypsin-like activities relative to chymotrypsin-like activity [6] | mode of action (reversibility of proteasome inhibition) [7] | mode of action (reversibility of proteasome inhibition) [3] | IC50 [8] [nM]
1 | C[C@@]12OC(=O)[C@]1([C@@H](O)[C@@H]1C=CCCC1)NC(=O)[C@@H]2CCCl [(–)-SalA (1), salinosporamide A] | 39 ± 7 | 111 ± 22 | irreversibly blocks the CP | sub-nanomolar range | 0.8 ± 0.08 | 1.3 | – | – | – | –
2 | C[C@@]12OC(=O)[C@]1([C@@H](O)[C@@H]1C=CCCC1)NC(=O)[C@@H]2CCCCl [(–)-homoSalA (3), (–)-homosalinosporamide A] | 118 ± 28 | 144 ± 12 | – | sub-nanomolar range | 0.7 ± 0.04 | – | two orders of magnitude less potent | reversible binder | – | –
3 | CC[C@H]1C(=O)N[C@@]2([C@@H](O)[C@@H]3C=CCCC3)C(=O)O[C@@]12C [SalB, salinosporamide B] | – | – | – | – | – | – | – | – | slow reversible CP inhibitor | –
4 | CC(C)[C@H](O)[C@@]12NC(=O)[C@H](C)[C@@H]1OC2=O [omuralide (5), omuralide] | – | – | – | – | – | – | – | – | – | 49

From paper PMC6071143, “(−)-Homosalinosporamide A and Its Mode of Proteasome Inhibition: An X-ray Crystallographic Study” (Marine Drugs, 2018)
